Patent publication US12648975B2, “Lactobacillus plantarum against Helicobacter pylori infection, and use thereof” (WECARE PROBIOTICS CO., LTD., priority 2021, dated 2026)

Assays:
[1] = tested on: Helicobacter pylori; test: Inhibition zone experiment (Oxford cup method), Example 6; format: cell-based; settings: 100 μL sample
Protocol: In this example, an inhibitory effect of the Lactobacillus plantarum in Example 3 on the growth of Helicobacter pylori was verified. Steps are described below. • (1) Helicobacter pylori at −80° C. was taken out, coated on a Columbia blood agar medium containing 5% sheep blood (v/v) for activation and culture and cultured in a microaerobic environment for 48 h at 37° C. • (2) The Lactobacillus plantarum was inoculated in an MRS liquid medium and cultured for 18 h at 37° C. for activation two consecutive times to obtain an activation solution. The activation solution was inoculated in an MRS liquid medium at an inoculum volume of 2% (v/v) and cultured for 18 h at 37° C. to obtain a bacterial solution. The bacterial solution was centrifuged at 8000 g for 10 min, and supernatant was taken and passed through a 0.22 μm sterile filtration membrane to obtain supernatant of the Lactobacillus plantarum. […] Effects of inhibiting the growth of Helicobacter pylori at 48 h and 72 h by the Lactobacillus plantarum were determined through the Oxford cup method.

[2] = tested on: Helicobacter pylori; test: Inhibition zone experiment (Oxford cup method) of health care product, Example 9; format: cell-based; settings: 100 μL sample
Protocol: The health care product for inhibiting Helicobacter pylori infection was prepared into a suspension (a density of Lactobacillus plantarum Lp05 was 10^9 CFU/mL) with water, 100 μL suspension was taken and coated onto a surface of a punctured Colombian blood agar medium (a volume of the medium was 20 mL) containing 5% sheep blood without an antibiotic, and any one of the following groups of liquids was added separately to form different experimental groups: 100 μL suspension of the health care product to be tested, 100 μL positive control (a metronidazole solution having a mass concentration of 0.025%), 100 μL negative control (a PBS buffer) and a blank control (100 μL MRS liquid medium). Effects of inhibiting the growth of Helicobacter pylori at 48 h and 72 h were determined through an Oxford cup method.

Compound: Cc1ncc([N+](=O)[O-])n1CCO [Positive control, metronidazole]
- Diameter of Inhibition Zone at 48 h (mm) ([1]; 48 h of culture): 11.2 ± 2.3 mm
- Diameter of Inhibition Zone at 72 h (mm) ([1]; 72 h of culture): 12.4 ± 3.1 mm
- Diameter of Inhibition Zone at 48 h (mm) ([2]; 48 h of culture): 9.3 ± 2.5 mm
- Diameter of Inhibition Zone at 72 h (mm) ([2]; 72 h of culture): 9.8 ± 2.5 mm
